Source: PubChem BioAssay AID2060613 (Molecular Pharmacology Branch, DTP, NCI, 2025)

Test system: 233499-124-R-J3-PDC complex spheroid viability
Assay: Anticancer human tumor 233499-124-R-J3-PDC patient-derived colon adenocarcinoma cell line growth inhibition [CLK]
Conditions: for viability, T/C: stronger effect = lower value
Excerpt: A high-throughput screen of multi-cell type tumor spheroids was designed to identify active combinations of […] and targeted small molecules. Complex spheroids include a stromal component modeled by human endothelial cells (HUVEC) and fibroblasts modeled by human mesenchymal stem cells (MSCs). The concentration ranges selected for each drug and investigational agent were based upon clinically achievable concentrations if the clinical Cmax of the agent was known.
Compounds. The drugs and investigational agents: cirtuvivint (SM08502; NSC835563), CC-671 (NSC850746), vemurafenib (NSC761431), tapotoclax (NSC804041), sotorasib (NSC818433), adagrasib (NSC831453), MRTX-1133 (NSC836407), BAY2416964 (NSC825713), copanlisib (NSC816437), inavolisib (NSC800729), abemaciclib (NSC768073), osimertinib (NSC779217), entinostat (NSC756642), eltanexor (KPT-8602, NSC794443), venetoclax (NSC766270), ceralasertib (NSC777638), bortezomib (NSC756655), olaparib (NSC753686), talazoparib (NSC767125), alisertib (NSC759677), peposertib (NSC802822), gemcitabine (NSC613327), 5-fluorouracil (NSC19893), SN-38 (NSC673596), oxaliplatin (NSC266046), paclitaxel (NSC125973), and doxorubicin (NSC123127), were obtained from the National Cancer Institute (NCI) Developmental Therapeutics Program Chemical Repository. The FDA-approved anticancer drug set is available from the Developmental Therapeutics Program at https://dtp.cancer.gov/organization/dscb/obtaining/available plates.htm. […] The stock solutions were prepared in dimethyl sulfoxide (DMSO, Sigma-Aldrich, St. Louis, MO, cat. D2650), except for the platinum complexes which were prepared in saline (Quality Biological, Gaithersburg, MD, cat. 114-055-101), at 800-fold the tested concentration and stored at -70 degrees C prior to their use. All drugs and investigational agents were tested over a range starting from a high concentration at or near the clinical Cmax and decreasing in half-log increments. If the clinical Cmax for an agent had not been determined, the highest concentration tested was 10 microM.
Cell Culture. All cells were maintained in an incubator at 37 degrees C and 5% CO2 with 95% humidity. The PDC lines were cultured according to standard operating procedures established by the NCI PDMR. Briefly, all PDCs were thawed and cultured in Matrigel-coated flasks prepared with a working solution of 1X Ham's F-12 nutrient mix, without supplementation (Invitrogen, Waltham, MA, cat. 11765054), 100 U/mL penicillin-streptomycin (Invitrogen, cat. 15140122), and 2.5% Matrigel (Corning Inc., Corning, NY, cat. 354248) for the first three passages. The 947758-054-R-J2-PDC line was cultured in 6B/Colon 1A media, which includes advanced DMEM/F-12 (Thermo Fisher Scientific, cat. 12634028), 10 mM HEPES (Thermo Fisher Scientific, cat. 15630080), 1X GlutaMAX supplement (Thermo Fisher Scientific, cat. 35050061), 0.1 mg/mL primocin (InvivoGen, cat. ant-pm-2), 10% defined fetal bovine serum, heat inactivated (HyClone Laboratories Inc., cat. SH30070.03HI), 1.25 mM N-Acetyl-L-cysteine (Sigma-Aldrich, cat. A9165), 10 mM nicotinamide (Sigma-Aldrich, cat. N0636), 1X B-27 supplement (Thermo Fisher Scientific, cat. 17504044), 1X N-2 supplement (Thermo Fisher Scientific, cat. 17502048), and 10 microM Y-27632 dihydrochloride (Tocris Bioscience, cat. 1254). The 876862-298-R-J1-PDC was cultured in 6E media, which includes all 6B/Colon 1A media components plus 50% L-WRN conditioned media (ATCC, cat. CRL-3276), 50 ng/mL recombinant human EGF recombinant protein (hEGF; Thermo Fisher Scientific, cat. PHG0311), 10 ng/mL recombinant human fibroblast growth factor 10 (hGFG-10; PeproTech, cat. 100-26), 1 ng/mL recombinant human fibroblast growth factor 2 (hFGF-2; PeproTech, cat. 100-18B), and 1 µM prostaglandin E2 (PGE2; Tocris, cat. 2296). The 227483-062-R1-J1-PDC line was cultured in Panc media, containing all 6E components except hFGF-2, with the addition of 500 nM SB-431542 (Selleckchem, cat. S1067) and 10 nM gastrin (Tocris, cat. 3006). […]

[1] = curve of first compound, second compound 0.0316 µM
[2] = curve of first compound, second compound 0.1 µM
[3] = curve of first compound, second compound 0.316 µM
[4] = curve of first compound, second compound 1 µM
[5] = curve of first compound, second compound 3.16 µM
[6] = curve of first compound, second compound 10 µM
[7] = second compound 0.0316 µM, first compound 0.0316 µM
[8] = second compound 0.0316 µM, first compound 0.1 µM
[9] = second compound 0.0316 µM, first compound 0.316 µM
[10] = second compound 0.0316 µM, first compound 1 µM
[11] = second compound 0.0316 µM, first compound 3.16 µM
[12] = second compound 0.0316 µM, first compound 10 µM
[13] = second compound 0.1 µM, first compound 0.0316 µM
[14] = second compound 0.1 µM, first compound 0.1 µM
[15] = second compound 0.1 µM, first compound 0.316 µM
[16] = second compound 0.1 µM, first compound 1 µM
[17] = second compound 0.1 µM, first compound 3.16 µM
[18] = second compound 0.1 µM, first compound 10 µM
[19] = second compound 0.316 µM, first compound 0.0316 µM
[20] = second compound 0.316 µM, first compound 0.1 µM
[21] = second compound 0.316 µM, first compound 0.316 µM
[22] = second compound 0.316 µM, first compound 1 µM
[23] = second compound 0.316 µM, first compound 3.16 µM
[24] = second compound 0.316 µM, first compound 10 µM
[25] = second compound 1 µM, first compound 0.0316 µM
[26] = second compound 1 µM, first compound 0.1 µM
[27] = second compound 1 µM, first compound 0.316 µM
[28] = second compound 1 µM, first compound 1 µM
[29] = second compound 1 µM, first compound 3.16 µM
[30] = second compound 1 µM, first compound 10 µM
[31] = second compound 3.16 µM, first compound 0.0316 µM
[32] = second compound 3.16 µM, first compound 0.1 µM
[33] = second compound 3.16 µM, first compound 0.316 µM
[34] = second compound 3.16 µM, first compound 1 µM
[35] = second compound 3.16 µM, first compound 3.16 µM
[36] = second compound 3.16 µM, first compound 10 µM
[37] = second compound 10 µM, first compound 0.0316 µM
[38] = second compound 10 µM, first compound 0.1 µM
[39] = second compound 10 µM, first compound 0.316 µM
[40] = second compound 10 µM, first compound 1 µM
[41] = second compound 10 µM, first compound 3.16 µM
[42] = second compound 10 µM, first compound 10 µM
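Note: spheroids exposed to the drug combinations for seven days.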
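Throughout, for viability, T/C: percent viability relative to DMSO vehicle control wells taken as 100%.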

## CC1(C)CCC(CN2CCN(c3ccc(C(=O)NS(=O)(=O)c4ccc(NCC5CCOCC5)c([N+](=O)[O-])c4)c(Oc4cnc5[nH]ccc5c4)c3)CC2)=C(c2ccc(Cl)cc2)C1 + CN1CCN(c2cc(C(=O)Nc3cc4cc(-c5cnn(C)c5)ccc4cn3)ccn2)CC1
[1]
  IC50: 6.39 µM
[2]
  IC50: 6.37 µM
[3]
  IC50: 5.74 µM
[4]
  IC50: < 0.0316 µM
[5]
  IC50: < 0.0316 µM
[6]
  IC50: < 0.0316 µM
[7]
  viability, T/C: 93.1%
[8]
  viability, T/C: 104%
[9]
  viability, T/C: 102%
[10]
  viability, T/C: 112%
[11]
  viability, T/C: 113%
[12]
  viability, T/C: 15.2%
[13]
  viability, T/C: 96.4%
[14]
  viability, T/C: 109%
[15]
  viability, T/C: 100%
[16]
  viability, T/C: 109%
[17]
  viability, T/C: 112%
[18]
  viability, T/C: 14.5%
[19]
  viability, T/C: 86.1%
[20]
  viability, T/C: 97%
[21]
  viability, T/C: 89%
[22]
  viability, T/C: 98.6%
[23]
  viability, T/C: 93.8%
[24]
  viability, T/C: 9.92%
[25]
  viability, T/C: 0.68%
[26]
  viability, T/C: 5.6%
[27]
  viability, T/C: 5.7%
[28]
  viability, T/C: 0.77%
[29]
  viability, T/C: 0.88%
[30]
  viability, T/C: 1.46%
[31]
  viability, T/C: 0.9%
[32]
  viability, T/C: 0.86%
[33]
  viability, T/C: 1.07%
[34]
  viability, T/C: 0.81%
[35]
  viability, T/C: 1.05%
[36]
  viability, T/C: 0.73%
[37]
  viability, T/C: 0.67%
[38]
  viability, T/C: 0.49%
[39]
  viability, T/C: 0.43%
[40]
  viability, T/C: 0.49%
[41]
  viability, T/C: 0.56%
[42]
  viability, T/C: 0.29%

## C#Cc1c(F)ccc2cc(O)cc(-c3ncc4c(N5CC6CCC(C5)N6)nc(OCC56CCCN5CC(F)C6)nc4c3F)c12 (stereo not drawn) + CNC(=O)c1ccc(Nc2nc(OC3CCCC3)c3c(-c4ccc5nc(C)oc5c4)c[nH]c3n2)c(OC)c1
[1]
  IC50: > 10 µM
[2]
  IC50: > 10 µM
[3]
  IC50: > 10 µM
[4]
  IC50: > 10 µM
[5]
  IC50: > 10 µM
[6]
  IC50: 5.76 µM
[7]
  viability, T/C: 98.8%
[8]
  viability, T/C: 98.2%
[9]
  viability, T/C: 86.5%
[10]
  viability, T/C: 91%
[11]
  viability, T/C: 75.9%
[12]
  viability, T/C: 88.7%
[13]
  viability, T/C: 76.5%
[14]
  viability, T/C: 62.8%
[15]
  viability, T/C: 72.7%
[16]
  viability, T/C: 75.8%
[17]
  viability, T/C: 74.3%
[18]
  viability, T/C: 57.7%
[19]
  viability, T/C: 90.3%
[20]
  viability, T/C: 74.9%
[21]
  viability, T/C: 85.3%
[22]
  viability, T/C: 68.3%
[23]
  viability, T/C: 74.8%
[24]
  viability, T/C: 55%
[25]
  viability, T/C: 78.3%
[26]
  viability, T/C: 78.9%
[27]
  viability, T/C: 68.4%
[28]
  viability, T/C: 56.8%
[29]
  viability, T/C: 81.4%
[30]
  viability, T/C: 55.2%
[31]
  viability, T/C: 54.4%
[32]
  viability, T/C: 73.1%
[33]
  viability, T/C: 52.8%
[34]
  viability, T/C: 70.8%
[35]
  viability, T/C: 68.3%
[36]
  viability, T/C: 53%
[37]
  viability, T/C: 75.5%
[38]
  viability, T/C: 77.7%
[39]
  viability, T/C: 68.8%
[40]
  viability, T/C: 68.4%
[41]
  viability, T/C: 60.9%
[42]
  viability, T/C: 40.6%

## CN1CCN(c2cc(C(=O)Nc3cc4cc(-c5cnn(C)c5)ccc4cn3)ccn2)CC1
Compound 1 µM
  viability, T/C: 1.16% [middle of 11 runs]
Compound 3.16 µM
  viability, T/C: 0.72% [middle of 10 runs]
Compound 10 µM
  viability, T/C: 0.46% [middle of 10 runs]
Compound alone, run of 07/31/2023
  IC50: 529 nM [middle of 10 runs]
